Key:
[1] = target: T1, HCV polymerase (NS5B570n-Con1) (Hepatitis C virus genotype 1b, UniProt Q9WMX2); experiment: biochemical; design: species or system HCV Con1 strain
T1 construct: contains a 21 amino acid deletion at the C-terminus relative to the full-length HCV polymerase; 6-histidine (N); made in house; host or cells: E. coli BL21(DE) pLysS, plasmid pET17b
Experimental: HCV NS5B RNA Polymerase Activity
The enzymatic activity of HCV polymerase (NS5B570n-Con1) was measured as the incorporation of radiolabeled nucleotide monophosphates into acid insoluble RNA products. Unincorporated radiolabeled substrate was removed by filtration and scintillant was added to the washed and dried filter plate containing radiolabeled RNA product. The amount of RNA product generated by NS5B570-Con1 at the end of the reaction was directly proportional to the amount of light emitted by the scintillant.
The N-terminal 6-histidine tagged HCV polymerase, derived from HCV Con1 strain, genotype 1b (NS5B570n-Con1) contains a 21 amino acid deletion at the C-terminus relative to the full-length HCV polymerase and was purified from E. coli strain BL21(DE) pLysS. The construct, containing the coding sequence of HCV NS5B Con1 (GenBank accession number AJ242654) was inserted into the plasmid construct pET17b, downstream of a T7 promoter expression cassette and transformed into E. coli. A single colony was grown overnight as a starter culture and later used inoculate 10 L of LB media supplemented with 100 μg/mL ampicillin at 37° C. Protein expression was induced by the addition of 0.25 mM isopropyl-β-D-thiogalactopyranoside (IPTG) when optical density at […] of the culture was between 0.6 and 0.8 and cells were harvested after 16 to 18 h at 30° C. NS5B570n-Con1 was purified to homogeneity using a three-step protocol including subsequent column chromatography on Ni-NTA, SP-Sepharose HP and Superdex 75 resins.
Data was analyzed in Excel® (Microsoft®) and ActivityBase® (idbs®). The reaction in the absence of enzyme was used to determine the background signal, which was subtracted from the enzymatic reactions. […] All data was expressed as a percentage of the positive control.
the data where “Y” corresponds to the relative enzyme activity (in %), “% Min” is the residual relative activity at saturating compound concentration, “% Max” is the relative maximum enzymatic activity, “X” corresponds to the compound concentration, and “S” is the Hill coefficient (or slope).

[2] = system: genotype 1b HCV replicon in Huh7 cell line 2209-23; experiment: HCV replicon assay (Renilla luciferase reporter); type: cell-based; conditions: Hepatitis C virus, Huh-7, 72 h; 2209-23 cells, three days incubation, luciferase readout
in vitro = conditions: human
HCV = conditions: cited from earlier work

Compound	IC50 [1] [nM]	melting point [°C]	further results
COc1c(C2Cc3ccc(NS(C)(=O)=O)cc3C(=O)O2)cc(-c2ccc[nH]c2=O)cc1C(C)(C)C (centres unmarked) [Compound I-9, N-{3-[3-tert-Butyl-2-methoxy-5-(2-oxo-1,2-dihydro-pyridin-3-yl)-phenyl]-1-oxo-isochroman-7-yl}-methanesulfonamide]	6		
COc1c(-c2cc3ccc(NS(C)(=O)=O)cc3c(=O)o2)cc(-c2cc(F)c[nH]c2=O)cc1C(C)(C)C [Compound I-6, N-{3-[3-tert-Butyl-5-(5-fluoro-2-oxo-1,2-dihydro-pyridin-3-yl)-2-methoxy-phenyl]-1-oxo-1H-isochromen-7-yl}-methanesulfonamide]	3	295 to 297	
COc1c(C2=CCc3cc(NS(C)(=O)=O)ccc3O2)cc(-c2ccc[nH]c2=O)cc1C(C)(C)C [Compound I-2, N-{2-[3-tert-Butyl-2-methoxy-5-(2-oxo-1,2-dihydro-pyridin-3-yl)-phenyl]-4H-chromen-6-yl}-methanesulfonamide]	14		
COc1c(-c2cc3ccc(NS(C)(=O)=O)cc3c(=O)o2)cc(-c2cc(F)c[nH]c2=O)cc1C1(C(F)F)CC1 [Compound I-15]	0.2		
CC(C)(C)c1cc(-c2cc3ccc(NS(C)(=O)=O)cc3c(=O)o2)cc(-c2ccc[nH]c2=O)c1 [Compound I-5, N-{3-[3-tert-Butyl-5-(2-oxo-1,2-dihydro-pyridin-3-yl)-phenyl]-1-oxo-1H-isochromen-7-yl}-methanesulfonamide]	9	> 300	
COc1c(-c2nc3ccc(NS(C)(=O)=O)cc3c(=O)[nH]2)cc(-c2ccc[nH]c2=O)cc1C(C)(C)C [Compound I-13, N-{2-[3-tert-Butyl-2-methoxy-5-(2-oxo-1,2-dihydro-pyridin-3-yl)-phenyl]-4-oxo-3,4-dihydro-quinazolin-6-yl}-methanesulfonamide]	9	228 to 230	
COc1c(C2Cc3ccc(NS(C)(=O)=O)cc3CO2)cc(-c2ccc[nH]c2=O)cc1C(C)(C)C (centres unmarked) [Compound I-10, N-{3-[3-tert-Butyl-2-methoxy-5-(2-oxo-1,2-dihydro-pyridin-3-yl)-phenyl]-isochroman-7-yl}-methanesulfonamide]	1	170 to 175	
COc1c(-c2cc3ccccc3c(=O)o2)cc(-c2ccc[nH]c2=O)cc1C(C)(C)C [Compound I-7, 3-[3-tert-Butyl-4-methoxy-5-(1-oxo-1H-isochromen-3-yl)-phenyl]-1H-pyridin-2-one]	2	253 to 255	
COc1c(-c2cc3ccccc3c(=O)[nH]2)cc(-c2ccc[nH]c2=O)cc1C(C)(C)C		138 to 140	
COc1c(-c2cc3ccc(NS(C)(=O)=O)cc3c(=O)[nH]2)cc(-c2ccc[nH]c2=O)cc1C(C)(C)C [Compound I-11, N-{3-[3-tert-Butyl-2-methoxy-5-(2-oxo-1,2-dihydro-pyridin-3-yl)-phenyl]-1-oxo-1,2-dihydro-isoquinolin-7-yl}-methanesulfonamide]	4	252 to 254	IC50 [2]: 1 nM; CC50 (in vitro): 42600 nM
COc1ccc(-c2cc(-c3cc4ccc(NS(C)(=O)=O)cc4c(=O)o3)c(OC)c(C(C)(C)C)c2)c(=O)[nH]1		231 to 233	
COc1c(C2CCc3cc(NS(C)(=O)=O)ccc3O2)cc(-c2ccc[nH]c2=O)cc1C(C)(C)C (centres unmarked) [Compound I-3, N-{2-[3-tert-Butyl-2-methoxy-5-(2-oxo-1,2-dihydro-pyridin-3-yl)-phenyl]-chroman-6-yl}-methanesulfonamide]	1		
COc1c(-c2cc3ccc(NS(C)(=O)=O)cc3c(=O)o2)cc(-c2c[nH]c(=O)[nH]c2=O)cc1C(C)(C)C [Compound I-14, N-{3-[3-tert-Butyl-5-(2,4-dioxo-1,2,3,4-tetrahydro-pyrimidin-5-yl)-2-methoxy-phenyl]-1-oxo-1H-isochromen-7-yl}-methanesulfonamide]	1	> 300	
NC(=O)c1ncn([C@@H]2O[C@H](CO)[C@@H](O)[C@H]2O)n1 [Ribavirin, 1-((2R,3R,4S,5R)-3,4-Dihydroxy-5-hydroxymethyl-tetrahydro-furan-2-yl)-1H-[1,2,4]triazole-3-carboxylic acid amide]			effect on serum levels of HCV-RNA (HCV; monotherapy / sole treatment): does not lower serum levels of HCV-RNA; patients with serum amino transferase levels reduced to normal (HCV; monotherapy): 40%
COc1c(-c2cc(=O)c3cc(NS(C)(=O)=O)ccc3o2)cc(-c2ccc[nH]c2=O)cc1C(C)(C)C [Compound I-1, N-{2-[3-tert-Butyl-2-methoxy-5-(2-oxo-1,2-dihydro-pyridin-3-yl)-phenyl]-4-oxo-4H-chromen-6-yl}-methanesulfonamide]	3	> 300	

— US20100297073A1, “HETEROCYCLIC ANTIVIRAL COMPOUNDS” (priority 2009, published 2010)
